Results from patent US20090202645A1, “INTRASYNOVIAL FORMULATIONS OF STANOZOLOL” (ACME DRUGS S.R.L., priority 2008, published 2009).

Assays:
[1] = persistence in the joint after a single intrasynovial injection; format: in vivo
From the text: A single intrasynovial injection of said formulations allows the stanozolol to be brought up to and maintained at pharmacologically active concentrations in the joint for 6-7 days, a period which is long enough to produce evident clinical benefits and fully compatible with long-term treatments.

cartilage tissue = experiment: effect on tissue, especially cartilage tissue; conditions: unlike the majority of NSAIDs and anti-inflammatory corticosteroids
[2] = test system: synovial fibroblasts from rheumatoid synovial tissue; conditions: cited from earlier work
solubility in water = format: physicochemical; conditions: crystalline substance
From the text: The formulations according to the invention of stanozolol in an aqueous carrier are therefore aqueous suspensions, and it is necessary to prevent the suspended crystals of the drug from causing mechanical lesions such as abrasions and erosions despite the pressures and friction generated by the movement of the joint on the surfaces of the cartilage and synovial membrane.

healthy skin fibroblast = conditions: cited from earlier work
[3] = persistence in synovial fluid of the typical intrasynovial preparation; format: in vivo; conditions: micronised stanozolol 5 mg, water for injectables to 1 ml, horses and humans
Protocol: An example of the formulation of a typical preparation containing stanozolol administrable by the intrasynovial route to horses and humans, which remains in the synovial fluid for 5-7 days, is set out below:
Active ingredient: micronised stanozolol (having a prevalent population of particles with a diameter of less than 20 μm) 5 mg;
Water for injectables q.s. to 1 ml.

## C[C@]12Cc3c[nH]nc3C[C@@H]1CC[C@@H]1[C@@H]2CC[C@@]2(C)[C@H]1CC[C@]2(C)O [stanozolol]
[1]
  time stanozolol is maintained at pharmacologically active concentrations in the joint: 6-7 days
Cartilage tissue
  degeneration of tissue, especially cartilage tissue: does not cause the degeneration of tissue, especially cartilage tissue, but regenerates it
[2]
  effect on synovial fibroblasts: no effect
Solubility in water
  solubility in water: insoluble in water
Healthy skin fibroblast
  production of PGE2: induces the production
  production of collagenase: induces the production
[3]
  time remaining in the synovial fluid: 5 to 7 days
